The compounds below were run against T1, APOL1 (Homo sapiens, UniProt O14791) (assay: MultiTox-Fluor Multiplex Cytotoxicity Assay in tet-inducible APOL1 T-REx-HEK293 cells (cell rescue, ratio of dead to live cells)). Details: tet-inducible transgenic APOL1 T-REx-HEK293 cell lines, 50 ng/mL tet, 24 hours; read-out: IP50 (i.e., IC50 for cell proliferation).
T1 sequence (O14791 1-398 S342G/I384M): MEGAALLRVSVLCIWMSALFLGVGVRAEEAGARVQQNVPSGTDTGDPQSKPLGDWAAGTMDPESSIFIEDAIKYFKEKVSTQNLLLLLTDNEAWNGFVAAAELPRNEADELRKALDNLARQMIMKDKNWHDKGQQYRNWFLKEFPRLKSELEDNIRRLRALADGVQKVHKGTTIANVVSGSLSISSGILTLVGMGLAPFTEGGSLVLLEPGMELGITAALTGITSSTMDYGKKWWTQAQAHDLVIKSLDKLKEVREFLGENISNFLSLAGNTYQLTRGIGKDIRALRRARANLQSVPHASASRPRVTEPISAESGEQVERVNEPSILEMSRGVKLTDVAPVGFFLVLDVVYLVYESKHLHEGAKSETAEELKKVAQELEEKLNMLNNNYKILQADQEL
Format: cell-based
Procedure, shortened: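 T-REx-HEK293 cells with tet-inducible APOL1 were treated with compound (10 μM top, 10-point 3-fold dilution, duplicate) plus 50 ng/mL tetracycline for 24 h at 37° C, in DMEM with 2% tet-free FBS. MultiTox-Fluor protease signals gave a dead/live ratio, normalized to no tet (100% viability) and tet alone (0%).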

SMILES	IC50 [µM]
CCc1cc2c(s1)CCO[C@@]21CCN(Cc2cn(CCS(=O)(=O)NCCO)nn2)[C@@H](C)C1 [Compound 6, 2-[4-[[(2′S,4R)-2-ethyl-2′-methyl-spiro[6,7-dihydrothieno[3,2-c]pyran-4,4′-piperidine]-1′-yl]methyl]triazol-1-yl]-N-(2-hydroxyethyl)ethanesulfonamide]	< 0.1
C[C@H]1C[C@@]2(CCN1Cc1cn(CCS(C)(=O)=O)nn1)OCCc1c2sc(C(F)(F)F)c1C(=O)NCC(F)F [Compound 1009]	0.5 to 1
C[C@H]1CC2(CCN1Cc1cnn(C)c1)OC(CO)Cc1sc(Cl)cc12 (some centres unmarked) [Compound 530]	< 0.1
C[C@H]1C[C@@]2(CCN1Cc1cn(CC(O)C(C)(C)O)nn1)OCCc1c2sc(C(F)(F)F)c1CO (some centres unmarked) [Compound 1005]	< 0.1
C[C@H]1C[C@@]2(CCN1Cc1ccc(O)nc1)OC[C@H](O)c1cc(Cl)sc12 [Compound 791]	< 0.1
CCc1cc2c(s1)CCOC21CCN(Cc2cn(CCS(=O)(=O)CC3CC3)nn2)CC1 [Compound 1090]	0.5 to 1
C[C@H]1C[C@@]2(CCN1CC1(O)CCS(=O)(=O)CC1)OCCc1cc(CC(F)F)sc12 [Compound 606]	0.1 to 0.5
C[C@H]1C[C@@]2(CCN1Cc1cnn(CCS(C)(=O)=O)c1)OC[C@](O)(C(F)F)c1cc(Cl)sc12 [Compound 827, (2′S,4S,7R)-2-chloro-4-(difluoromethyl)-2′-methyl-1′-[[1-(2-methylsulfonylethyl)pyrazol-4-yl]methyl]spiro[5H-thieno[2,3-c]pyran-7,4′-piperidine]-4-ol]	< 0.1
CCc1cc2c(s1)CCO[C@@]21CCN(Cc2cn(CC3CCOC3)nn2)[C@@H](C)C1 (some centres unmarked) [Compound 131]	0.1 to 0.5
C[C@H]1C[C@@]2(CCN1Cc1ncco1)OCCc1cc(CC(F)F)sc12 [Compound 580]	0.1 to 0.5
CCc1cc2c(s1)CCOC21CCN(Cc2cn(CC(O)CC)nn2)C(C)C1 (centres unmarked) [Compound 133]	< 0.1
CCc1cc2c(s1)CCOC21CCN(Cc2cn(CC(O)COC)nn2)C(C)C1 (centres unmarked) [Compound 138]	< 0.1
C[C@H]1C[C@@]2(CCN1Cc1cn(CCS(C)(=O)=O)nn1)OCCc1c2sc(C(F)(F)F)c1C(=O)NCC1CC1 [Compound 1008]	0.5 to 1
Cc1cc2c(s1)[C@]1(CCN(Cc3cnn(CCS(C)(=O)=O)c3)[C@@H](C)C1)OCC2 [Compound 1026]	< 0.1
C[C@H]1C[C@@]2(CCN1Cc1ccc(F)cn1)OC[C@H](O)c1cc(Cl)sc12 [Compound 792]	0.1 to 0.5
CO[C@]1(C(F)F)CO[C@@]2(CCN(Cc3cnn(CCS(C)(=O)=O)c3)[C@@H](C)C2)c2sc(Cl)cc21 [Compound 835]	< 0.1
C[C@H]1C[C@@]2(CCN1Cc1cnn(C[C@@H](O)C(=O)NC3CC3)c1)OC[C@@H](O)c1cc(C(F)(F)F)sc12 [Compound 995]	< 0.1
CCc1cc2c(s1)CCO[C@@]21CCN(Cc2cn([C@H]3CCN(S(C)(=O)=O)C3)nn2)[C@@H](C)C1 [Compound 27]	< 0.1
C[C@H]1C[C@@]2(CCN1Cc1cn[nH]c1)OC[C@](O)(C(F)F)c1cc(Cl)sc12 [Compound 828, (2′S,4S,7R)-2-chloro-4-(difluoromethyl)-2′-methyl-1′-(1H-pyrazol-4-ylmethyl)spiro[5H-thieno[2,3-c]pyran-7,4′-piperidine]-4-ol]	< 0.1
CCc1cc2c(s1)CCO[C@@]21CCN(Cc2cn(CC(O)c3nccn3C)nn2)[C@@H](C)C1 (some centres unmarked) [Compound 69]	< 0.1

SMILES	IC50 [µM]
CCc1cc2c(s1)CCOC21CCN(Cc2cn(CC3CC(=O)N(CCOC)C3)nn2)C(C)C1 (centres unmarked) [Compound 116]	0.1 to 0.5
C[C@H]1C[C@@]2(CCN1CC(O)c1ccccc1)OCCc1cc(CC(F)F)sc12 (stereo partly drawn) [Compound 594, 2-[(2′S, 7R)-2-(2,2-difluoroethyl)-2′-methyl-spiro[4,5-dihydrothieno[2,3-c]pyran-7,4′-piperidine]-1′-yl]-1-phenyl-ethanol]	< 0.1
C[C@H]1C[C@@]2(CCN1Cc1ccncc1F)OCCc1c2sc(Cl)c1CO [Compound 735]	0.5 to 1
CCc1ncc(CN2CC[C@]3(C[C@@H]2C)OCCc2cc(Cl)sc23)cn1 [Compound 653]	0.1 to 0.5
CCc1cc2c(s1)CCOC21CCN(Cc2csc(C(F)(F)F)n2)CC1 [Compound 1147]	0.5 to 1
CCc1cc2c(s1)CCO[C@@]21CCN(Cc2cn(C3CN(S(=O)(=O)c4nccn4C)C3)nn2)[C@@H](C)C1 [Compound 3]	< 0.1
CCc1cc2c(s1)CCO[C@@]21CCN(C[C@H]2C[C@@H](NC(=O)C3CCc4ccccc4O3)C2)[C@H](C)C1 (stereo in doubt) [Compound 332]	0.1 to 0.5
CCc1cc2c(s1)CCO[C@@]21CCN(C[C@H]2C[C@@H](NC(=O)C3(C(N)=O)CC3)C2)[C@@H](C)C1 [Compound 350]	0.1 to 0.5
C[C@H]1C[C@@]2(CCN1Cc1cn[nH]c1)OCC(O)c1cc(Cl)sc12 (some centres unmarked) [Compound 817]	< 0.1
CCc1cc2c(s1)CCO[C@@]21CCN(Cc2cn(C3CC(CO)N3)nn2)[C@@H](C)C1 (some centres unmarked) [Compound 128]	0.1 to 0.5
CCc1cc2c(s1)CCO[C@@]21CCN(Cc2cn(-c3cccnc3)nn2)[C@@H](C)C1 [Compound 73]	< 0.1
C[C@H]1C[C@@]2(CCN1Cc1cnn(C[C@H](O)CO)c1)OC[C@@H](O)c1cc(C(F)(F)F)sc12 [Compound 968]	< 0.1
C[C@H]1C[C@@]2(CCN1Cc1ccc(S(C)(=O)=O)nc1)OCCc1c2sc(Cl)c1CO [Compound 734]	0.1 to 0.5
COc1ccc(CN2CC[C@]3(C[C@@H]2C)OC[C@H](O)c2cc(Cl)sc23)cn1 [Compound 804]	< 0.1
CCc1cc2c(s1)CCOC21CCN(Cc2cn(C(C)c3nnc(C)o3)nn2)CC1 (centres unmarked) [Compound 1101]	0.5 to 1
CCc1cc2c(s1)CCO[C@@]21CCN(Cc2cn(CC3(O)COC3)nn2)[C@@H](C)C1 [Compound 146]	< 0.1
CCc1cc2c(s1)CCOC21CCN(Cc2ccc(C(=O)NC(CO)CO)nc2)CC1 [Compound 1057]	0.1 to 0.5
CCc1cc2c(s1)CCOC21CCN(Cc2cnn(C)c2)CC1 [Compound 1138]	0.1 to 0.5
CCc1cc2c(s1)CCOC21CCN(Cc2ccc(C(=O)Nc3c[nH]c4ccccc34)nc2)CC1 [Compound 1044]	< 0.1
C[C@H]1C[C@@]2(CCN1Cc1cnn(CC(O)C3(O)COC3)c1)OCCc1c2sc(C(F)(F)F)c1CO (some centres unmarked) [Compound 933]	< 0.1

SMILES	IC50 [µM]
CCc1cc2c(s1)CCO[C@@]21CCN(CC2CN(C(=O)c3ccn(CO)n3)C2)[C@@H](C)C1 [Compound 475]	< 0.1
C[C@H]1C[C@@]2(CCN1Cc1ncccc1F)OCCc1cc(CC(F)F)sc12 [Compound 589]	0.5 to 1
C[C@H]1C[C@@]2(CCN1Cc1ccc(C(=O)N(C)C)cc1)OCCc1c2sc(Cl)c1CO [Compound 743]	0.1 to 0.5
CCc1cc2c(s1)CCOC21CCN(Cc2cn(CC(O)CC)nn2)CC1 (centres unmarked) [Compound 1084]	0.5 to 1
Cc1cncc(N2CCC(CN3CC[C@]4(C[C@@H]3C)OC[C@H](O)c3cc(Cl)sc34)CC2)n1 [Compound 816]	0.5 to 1
CCc1cc2c(s1)CCO[C@@]21CCN(Cc2cn([C@H]3C[C@@H](OC)C3)nn2)[C@@H](C)C1 [Compound 145]	< 0.1
CCc1cc2c(s1)CCOC21CCN(Cc2cn(CC(O)C(C)(C)O)nn2)C(C)C1 (centres unmarked) [Compound 125]	< 0.1
CCc1cc2c(s1)CCOC21CCN(CC2CC2)CC1 [Compound 1155]	0.5 to 1
CCc1cc2c(s1)CCO[C@@]21CCN(C[C@H]2C[C@@H](NC(=O)c3cnn(CC(F)(F)F)c3)C2)[C@@H](C)C1 [Compound 310]	0.1 to 0.5
CCc1cc2c(s1)CCO[C@@]21CCN(Cc2cn(CC(=O)N3CCCC3)nn2)[C@@H](C)C1 [Compound 63]	< 0.1
CCc1cc2c(s1)CCOC21CCN(Cc2cnc(C(C)O)s2)CC1 (centres unmarked) [Compound 1143]	0.5 to 1
CCc1cc2c(s1)CCOC21CCN(Cc2cn(CC3(C)COCCO3)nn2)C(C)C1 (centres unmarked) [Compound 102]	< 0.1
CCc1cc2c(s1)CCO[C@@]21CCN(CC2CN(C(=O)CCCOC)C2)[C@@H](C)C1 [Compound 439]	< 0.1
CCc1cc2c(s1)CCO[C@@]21CCN(C[C@H]2C[C@@H](NC(=O)CCS(C)(=O)=O)C2)[C@@H](C)C1 [Compound 356]	< 0.1
CCc1cc2c(s1)CCO[C@@]21CCN(Cc2cn(-c3cncnc3)nn2)[C@@H](C)C1 [Compound 72]	< 0.1
CCc1cc2c(s1)CCO[C@@]21CCN(C[C@H]2C[C@H](NC(=O)OC(C)(C)C)C2)[C@@H](C)C1 [Compound 418, tert-butyl N-[3-[[(2′S,4R)-2-ethyl-2′-methyl-spiro[6,7-dihydrothieno[3,2-c]pyran-4,4′-piperidine]-1′-yl]methyl]cyclobutyl]carbamate]	0.1 to 0.5
C[C@H]1C[C@@]2(CCN1Cc1cnn(CCS(C)(=O)=O)c1)OCC(O)c1c2sc(Cl)c1Cl (stereo partly drawn) [Compound 861, (2S,4R)-2′,3′-dichloro-2-methyl-1-((1-(2-(methylsulfonyl)ethyl)-1H-pyrazol-4-yl)methyl)-4′l3-spiro[piperidine-4,7′-thieno[3,2-d]pyran]-4′(5′H)-ol]	0.1 to 0.5
CCc1cc2c(s1)CCOC21CCN(Cc2ccc3[nH]ncc3c2)CC1 [Compound 1128]	< 0.1
C[C@H]1C[C@@]2(CCN1C[C@H]1C[C@@H](NC(=O)C3CC(F)(F)C3)C1)OCCc1cc(CC(F)F)sc12 [Compound 550]	< 0.1

Reference: US20250171459A1, “2-METHYL-4',5'-DIHYDROSPIRO[PIPERIDINE-4,7'-THIENO[2,3-C]PYRAN] DERIVATIVES AS INHIBITORS OF APOL1 AND METHODS OF USING SAME” (Vertex Pharmaceuticals Incorporated, priority 2022, published 2025)
